The target in this test is T1, HIV-1 protease (HIV-1 M:B_ARV2/SF2, UniProt P03369, C557X/C585X).
T1 construct: aminobutyric acid at 67 and 95, thioester at 51-52; NovaBiochem kit
The experiment in a line: Fluorometric HIV-1 protease inhibition assay (NovaBiochem kit, fluorogenic substrate). Format: biochemical. As for the experimental part:
The inhibition constant (Ki) of compound Ia is determined using HIV-1 protease kit supplied by NovaBiochem (cat. #10-39-0001, which supplies a solid phase synthesized analog of the protease, incorporating the unnatural residue aminobutyric acid in place of both cysteine residues 67 and 95, along with a thioester linkage in place of the normal peptide bond between residues 51-52). A fluorometric assay is performed using a fluorogenic substrate supplied by NovaBiochem (cat. #05-23-5216, Abz-Thr-Ile-Nle-Phe(NO2)-Gln-Arg-NH2). Initial rates of substrate hydrolysis are determined by following the increase in the fluorescence emission at 420 nm (excitation is at 325 nm) as the substrate is digested by the protease. The initial rates of substrate cleavage is determined in the absence and presence of compound Ia (up to a concentration of Ia=500 nM).

Structures are written as SMILES.

A word on the Ki: it is the equilibrium dissociation constant of an inhibitor or competing ligand from its target. `CC(C)(C)OC(=O)N[C@@H](Cc1ccccc1)[C@@H](O)C[N+](C)(Cc1ccccc1)[N-]C(=O)c1ccccc1` (single isomer, unassigned) [Ia]: the “mode of inhibition (Lineweaver-Burk analysis)” value (initial rates of substrate cleavage in absence and presence of Ia (up to 500 nM)) was “classical competitive inhibition”. For the same molecule, for the setting “read-out: inhibition constant (Ki), synthetic HIV-1 protease analog (NovaBiochem), substrate Abz-Thr-Ile-Nle-Phe(NO2)-Gln-Arg-NH2, replot of Lineweaver-Burk slopes, Ia up to 500 nM”, the inhibitory constant (Ki) worked out at 137 nM.
